Data reported in patent US11285218B2, “Degradation of bromodomain-containing protein 9 (BRD9) by conjugation of BRD9 inhibitors with E3 ligase ligand and methods of use” (Dana-Farber Cancer Institute, Inc., priority 2016, dated 2022).
pIC50: −log10 of the molar value. Entries after “also recorded” stand apart in the source; their conditions may differ.

What was measured:
BRD9 [1] = molecular target: T1, BRD9 (Homo sapiens, UniProt Q9H8M2); test: BRD9-ligand displacement AlphaScreen; assay type: binding
T1 construct: A construct of human BRD9 covering residues 134-0245 in the pET28PP vector; made in house; host or cells: E. coli BL21 (DE3)
T1 sequence (Q9H8M2 134-245 limits assumed): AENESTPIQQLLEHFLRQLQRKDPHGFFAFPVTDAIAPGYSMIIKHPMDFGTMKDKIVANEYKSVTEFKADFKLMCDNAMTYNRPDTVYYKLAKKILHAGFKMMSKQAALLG
Method: BRD9 assays were performed with minimal modifications from the manufacturer's protocol (PerkinElmer, USA). All reagents were diluted in 50 mM HEPES, 150 mM NaCl, 0.1% w/v BSA, 0.01% w/v Tween20, pH 7.5. […] Plates were spun down at 150×g, and 100 nL of DMSO compound stock was added from pre-diluted plates by pin transfer using a Janus Workstation (PerkinElmer, USA). Under low light, a 2× suspension of Ni-coated Acceptor Beads and Streptavidin Donor Beads, was then added at 10 ul/well to a final concentration of 5 μg/ml by EL406 automated liquid handler (Biotek, USA).

CRBN-DDB1 = molecular target: T2, CRBN-DDB1 (Homo sapiens, UniProt Q96SW2); test: CRBN-DDB1 ligand-displacement AlphaScreen; assay type: binding; conditions: purified CRBN-DDB1 ligand displacement
T2 construct: made in house; host or cells: Sf9 cells (Invitrogen)
T2 sequence (Q96SW2 whole entry): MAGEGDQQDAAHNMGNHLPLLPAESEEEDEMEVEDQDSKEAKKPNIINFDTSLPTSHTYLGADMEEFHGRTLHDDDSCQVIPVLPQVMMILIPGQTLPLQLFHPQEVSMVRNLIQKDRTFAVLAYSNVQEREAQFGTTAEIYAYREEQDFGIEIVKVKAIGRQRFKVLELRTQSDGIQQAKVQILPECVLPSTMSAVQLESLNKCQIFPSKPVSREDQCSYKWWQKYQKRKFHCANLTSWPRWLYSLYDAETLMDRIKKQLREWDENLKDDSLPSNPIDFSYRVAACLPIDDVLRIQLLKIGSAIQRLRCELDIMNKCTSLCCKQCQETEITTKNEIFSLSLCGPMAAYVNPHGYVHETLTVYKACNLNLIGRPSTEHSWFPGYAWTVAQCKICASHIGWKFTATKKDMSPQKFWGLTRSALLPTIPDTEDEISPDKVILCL
T2 sequence (Q16531 whole entry partner): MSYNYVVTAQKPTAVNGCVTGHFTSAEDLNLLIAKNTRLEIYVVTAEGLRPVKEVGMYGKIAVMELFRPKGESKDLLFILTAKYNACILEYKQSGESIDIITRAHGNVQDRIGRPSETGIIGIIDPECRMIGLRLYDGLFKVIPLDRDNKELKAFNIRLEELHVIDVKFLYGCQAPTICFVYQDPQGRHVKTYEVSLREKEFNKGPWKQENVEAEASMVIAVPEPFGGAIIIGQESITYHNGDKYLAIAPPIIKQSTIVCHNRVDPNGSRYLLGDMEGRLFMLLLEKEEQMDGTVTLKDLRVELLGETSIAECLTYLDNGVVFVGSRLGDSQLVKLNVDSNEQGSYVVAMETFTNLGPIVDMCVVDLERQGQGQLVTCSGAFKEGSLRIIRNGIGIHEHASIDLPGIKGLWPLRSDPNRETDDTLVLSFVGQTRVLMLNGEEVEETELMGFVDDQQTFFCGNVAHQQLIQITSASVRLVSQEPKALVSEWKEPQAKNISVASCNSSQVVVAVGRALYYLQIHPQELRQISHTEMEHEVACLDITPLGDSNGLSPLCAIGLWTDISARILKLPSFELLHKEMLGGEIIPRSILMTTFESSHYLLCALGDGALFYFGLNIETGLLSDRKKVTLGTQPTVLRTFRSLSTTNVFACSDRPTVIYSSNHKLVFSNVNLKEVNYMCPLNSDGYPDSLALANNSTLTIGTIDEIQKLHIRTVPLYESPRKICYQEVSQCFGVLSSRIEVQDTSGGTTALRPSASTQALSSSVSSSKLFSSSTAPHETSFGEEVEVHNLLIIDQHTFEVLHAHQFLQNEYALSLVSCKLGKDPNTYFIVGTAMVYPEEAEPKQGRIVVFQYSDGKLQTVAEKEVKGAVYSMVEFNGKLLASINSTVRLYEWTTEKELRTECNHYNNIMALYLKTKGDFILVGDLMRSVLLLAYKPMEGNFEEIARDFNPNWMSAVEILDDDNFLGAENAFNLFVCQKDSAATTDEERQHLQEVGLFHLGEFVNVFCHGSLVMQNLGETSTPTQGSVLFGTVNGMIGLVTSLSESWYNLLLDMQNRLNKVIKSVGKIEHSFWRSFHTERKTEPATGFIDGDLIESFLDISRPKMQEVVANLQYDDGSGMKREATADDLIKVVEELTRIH
Method: Following a 30 min incubation, 20 uL detection solution containing Streptavidin Donor Beads and Nickel Chelate AlphaLISA® Acceptor Beads diluted to 20 ng/uL in assay buffer was added to each well.

[2] = tested on: 32 members of the human bromodomain family; test: BromoScan single-point screen, panel profile; assay type: binding; conditions: single-point 1 μM, 32 bromodomains; in words
Text: (§1) The BromoScan is an assay that measures the engagement of compounds with bromodomain proteins by utilizing DNA-tagged bromodomain and immobilized ligand attached to solid support. In the control test, DNA-tagged bromodomain binds to the ligand and the bromodomain is captured on the solid support. Compounds that compete for the bromodomain binding location on the ligand will prevent the bromodomain from binding, resulting in less protein captured on the solid support.

ATAD2A = molecular target: T3, ATAD2A (Homo sapiens, UniProt Q6PL18); test: BromoScan single-point screen; assay type: binding; conditions: percent of protein captured on solid support vs control
T3 construct: utilizing DNA-tagged bromodomain and immobilized ligand attached to solid support
T3 sequence (Q6PL18 980-1092 limits assumed): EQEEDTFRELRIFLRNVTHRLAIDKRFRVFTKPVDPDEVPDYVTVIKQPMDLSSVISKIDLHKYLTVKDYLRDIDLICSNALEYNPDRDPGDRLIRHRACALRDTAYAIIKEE
Text: as §1

BRD1 = molecular target: T4, BRD1 (Homo sapiens, UniProt O95696); test: BromoScan single-point screen; assay type: binding; conditions: percent of protein captured on solid support vs control
T4 construct: utilizing DNA-tagged bromodomain and immobilized ligand attached to solid support
T4 sequence (O95696 562-666 limits assumed): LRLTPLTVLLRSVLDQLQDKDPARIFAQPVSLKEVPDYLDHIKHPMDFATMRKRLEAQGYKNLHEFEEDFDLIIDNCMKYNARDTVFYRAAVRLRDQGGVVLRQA
Text: as §1

BRD7 [3] = molecular target: T5, BRD7 (Homo sapiens, UniProt Q9NPI1); test: BromoScan single-point screen; assay type: binding; conditions: percent of protein captured on solid support vs control
T5 construct: utilizing DNA-tagged bromodomain and immobilized ligand attached to solid support
Text: as §1
T5 sequence (Q9NPI1 131-235 limits assumed): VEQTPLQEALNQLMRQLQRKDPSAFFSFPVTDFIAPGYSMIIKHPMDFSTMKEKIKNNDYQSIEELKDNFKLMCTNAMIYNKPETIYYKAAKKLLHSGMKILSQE

BRDT(1) = molecular target: T6, BRDT(1) (Homo sapiens, UniProt Q58F21); test: BromoScan single-point screen; assay type: binding; conditions: percent of protein captured on solid support vs control
T6 construct: utilizing DNA-tagged bromodomain and immobilized ligand attached to solid support
Text: as §1

BRPF3 = molecular target: T7, BRPF3 (Homo sapiens, UniProt Q9ULD4); test: BromoScan single-point screen; assay type: binding; conditions: percent of protein captured on solid support vs control
T7 construct: utilizing DNA-tagged bromodomain and immobilized ligand attached to solid support
T7 sequence (Q9ULD4 589-693 limits assumed): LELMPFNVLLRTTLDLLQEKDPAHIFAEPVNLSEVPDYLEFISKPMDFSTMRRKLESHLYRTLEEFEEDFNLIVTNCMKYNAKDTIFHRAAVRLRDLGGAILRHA
Text: as §1

PBRM1(2) = molecular target: T8, PBRM1(2) (Homo sapiens, UniProt Q86U86); test: BromoScan single-point screen; assay type: binding; conditions: percent of protein captured on solid support vs control
T8 construct: utilizing DNA-tagged bromodomain and immobilized ligand attached to solid support
T8 sequence (Q86U86 177-287 limits assumed): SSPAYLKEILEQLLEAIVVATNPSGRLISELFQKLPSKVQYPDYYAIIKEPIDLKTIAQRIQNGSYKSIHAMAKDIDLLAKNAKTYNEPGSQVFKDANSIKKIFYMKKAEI
Text: as §1

TRIM24 (PHD, Bromo.) = molecular target: T9, TRIM24 (PHD, Bromo.) (Homo sapiens, UniProt O15164); test: BromoScan single-point screen; assay type: binding; conditions: percent of protein captured on solid support vs control
T9 construct: utilizing DNA-tagged bromodomain and immobilized ligand attached to solid support
T9 sequence (O15164 824-1006 limits assumed): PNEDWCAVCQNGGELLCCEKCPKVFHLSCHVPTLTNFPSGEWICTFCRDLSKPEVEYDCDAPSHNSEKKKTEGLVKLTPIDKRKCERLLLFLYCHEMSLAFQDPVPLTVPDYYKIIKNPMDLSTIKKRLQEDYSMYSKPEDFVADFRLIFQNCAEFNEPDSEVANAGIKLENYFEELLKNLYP
Text: as §1

TRIM33 (PHD, Bromo.) = test: BromoScan single-point screen; assay type: binding, human; conditions: percent of protein captured on solid support vs control
Text: as §1

BRD4 = BRD4 (Homo sapiens, UniProt O60885); test: BRD4 immunoblot in MOLM-13; conditions: MOLM-13, 4 hour treatment
Method: In additional experiments, cells were washed with PBS, before being lysed in RIPA buffer supplemented with 1×HALT™ protease inhibitor cocktail (Thermo Scientific) for 10 min on ice, followed by low-amplitude sonication for 10 seconds at 4° C. (Q125, QSonica, USA). In soluble material was removed by centrifugation at 20,000×g for 20 min before protein content was quantified by BCA assay (Pierce). […] Blots were imaged using fluorescence-labeled secondary antibodies (LI-COR) on the OdysseyCLxImager (LI-COR).

BRD7 [4] = molecular target: BRD7 (Homo sapiens, UniProt Q9NPI1); test: BRD7 immunoblot in MOLM-13; conditions: MOLM-13, 4 hour treatment
Target sequence in this assay (Q9NPI1 whole entry): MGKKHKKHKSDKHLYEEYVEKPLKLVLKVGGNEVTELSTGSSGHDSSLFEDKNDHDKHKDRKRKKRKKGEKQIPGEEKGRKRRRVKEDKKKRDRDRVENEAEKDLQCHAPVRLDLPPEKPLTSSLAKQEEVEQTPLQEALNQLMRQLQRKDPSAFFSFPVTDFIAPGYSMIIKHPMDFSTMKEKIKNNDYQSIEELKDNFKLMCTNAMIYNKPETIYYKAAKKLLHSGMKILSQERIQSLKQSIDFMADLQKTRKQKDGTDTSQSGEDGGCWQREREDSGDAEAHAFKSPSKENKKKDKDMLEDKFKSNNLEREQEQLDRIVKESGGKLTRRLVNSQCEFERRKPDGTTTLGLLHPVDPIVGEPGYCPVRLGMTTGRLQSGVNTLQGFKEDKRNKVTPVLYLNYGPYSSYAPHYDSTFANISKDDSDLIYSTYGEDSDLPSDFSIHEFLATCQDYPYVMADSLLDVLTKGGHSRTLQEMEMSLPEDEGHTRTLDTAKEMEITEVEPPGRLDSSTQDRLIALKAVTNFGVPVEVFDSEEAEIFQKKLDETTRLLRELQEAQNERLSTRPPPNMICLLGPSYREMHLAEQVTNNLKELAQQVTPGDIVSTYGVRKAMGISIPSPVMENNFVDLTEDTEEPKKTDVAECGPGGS
Method: (§2) In additional experiments, cells were washed with PBS, before being lysed in RIPA buffer supplemented with 1×HALT™ protease inhibitor cocktail (Thermo Scientific) for 10 min on ice, followed by low-amplitude sonication for 10 seconds at 4° C. […] In soluble material was removed by centrifugation at 20,000×g for 20 min before protein content was quantified by BCA assay (Pierce). […] Blots were imaged using fluorescence-labeled secondary antibodies (LI-COR) on the OdysseyCLxImager (LI-COR).

BRD9 [5] = molecular target: T10, BRD9 (Homo sapiens, UniProt Q9H8M2); test: BRD9 immunoblot in MM1S cells
T10 sequence (Q9H8M2 1-597): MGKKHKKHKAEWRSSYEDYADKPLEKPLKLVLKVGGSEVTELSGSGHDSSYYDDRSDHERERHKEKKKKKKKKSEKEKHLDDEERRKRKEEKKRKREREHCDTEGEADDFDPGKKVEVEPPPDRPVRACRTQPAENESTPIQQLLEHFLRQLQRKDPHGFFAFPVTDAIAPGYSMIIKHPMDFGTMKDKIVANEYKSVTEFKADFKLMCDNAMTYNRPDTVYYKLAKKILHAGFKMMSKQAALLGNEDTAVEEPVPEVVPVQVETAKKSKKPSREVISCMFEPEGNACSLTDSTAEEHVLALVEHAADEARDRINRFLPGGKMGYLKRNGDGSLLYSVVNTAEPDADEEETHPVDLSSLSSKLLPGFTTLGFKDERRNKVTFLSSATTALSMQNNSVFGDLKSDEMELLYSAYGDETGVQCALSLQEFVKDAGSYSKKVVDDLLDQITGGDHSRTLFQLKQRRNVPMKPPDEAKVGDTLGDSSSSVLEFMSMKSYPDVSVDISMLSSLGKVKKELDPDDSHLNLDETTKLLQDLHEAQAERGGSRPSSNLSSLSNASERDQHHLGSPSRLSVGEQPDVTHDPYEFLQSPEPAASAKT
Method: as §2

[6] = tested on: MM.1S multiple myeloma line; test: ATPlite viability assay, MM.1S; conditions: 72 hour treatment, in words
Method: (§3) 500 cells/well were plated at a volume of 40 μL/well in white tissue culture treated 384 well assay plates (Thermo Scientific) before DMSO compound stock was added from pre-diluted plates by pin transfer using a Janus Workstation (PerkinElmer, USA). […] Assay plates were allowed to equilibrate to RT for 30 min before reconstituted ATPlite 1 Step reagent (Perkin Elmer) was dispensed at 1:1 volume/well by EL406 automated liquid handler (Biotek, USA).

MOLM-13 cell line = test: ATPlite viability assay, MOLM-13; conditions: MOLM-13, 72 hours; in words
Method: as §3

[7] = molecular target: BRD9:CRBN-DDB1 protein complex (Homo sapiens, UniProt Q96SW2+Q9H8M2); test: BRD9:CRBN-DDB1 dimerization assay (luminescence); conditions: for formation of the BRD9:CRBN-DDB1 protein complex: in words
Sequence of BRD9:CRBN-DDB1 protein complex (Q96SW2 whole entry, one chain of several): as the sequence (Q96SW2 whole entry) above
Sequence of BRD9:CRBN-DDB1 protein complex (Q16531 whole entry partner, one chain of several): as the sequence (Q16531 whole entry partner) above
Method: To measure this activity, a homogenous luminescence assay was developed to report on compound-induced proximity of BRD9 and CRBN.
To detect CRBN-DDBI/BRD4 dimerization, we adapted bead-based AlphaScreen technology. […] Compounds were then pinned at 100 nL per well from DMSO stock. After 1 incubation at room temperature. Nickel Chelate AlphaLISA Acceptor and Glutathione AlphaLISA Donor beads (PerkinElmer) were diluted in assay buffer to 20 μg/mL and added at 20 μl per well.

BRD9 [8] = molecular target: T10, BRD9; test: BRD9 degradation / cellular activity (Western blot, cell line not stated); conditions: cell line not given
BRD4(1) = BRD4(1) (Homo sapiens, UniProt O60885); test: BRD4(1) ligand-displacement AlphaScreen; assay type: binding; parameters: substituting protein and biotin-probe components for BRD4(1) protein at 20 nM final; His tag (inferred from Ni-coated acceptor beads)
[9] = MMIS cells, 4 hours pretreatment, then 100 nM
[10] = luminescence detection of dimerization assay

pIC50 (BRD9 [1]): 7.91 | pIC50 (CRBN-DDB1): 7.95 | % Ctrl @ 1 μM (ATAD2A): 100 % Ctrl | % Ctrl @ 1 μM (BRD1): 42 % Ctrl | % Ctrl @ 1 μM (BRD7 [3]): 0 % Ctrl | % Ctrl @ 1 μM (BRDT(1)): 18 % Ctrl | % Ctrl @ 1 μM (BRPF3): 85 % Ctrl | % Ctrl @ 1 μM (PBRM1(2)): 68 % Ctrl | % Ctrl @ 1 μM (TRIM24 (PHD, Bromo.)): 84 % Ctrl | BRD7 degradation (immunoblot) (BRD7 [4]): degradation was observed | BRD9 degradation after pretreatment with excess I-BRD9 (BRD9 [5]; [9]): prevented degradation | BRD9 degradation after pretreatment with excess lenalidomide (BRD9 [5]; [9]): prevented degradation | BRD9 degradation with co-treatment with carfilzomib (BRD9 [5]; [9]): Degradation was abolished | BRD9 levels after pretreatment with neddylation inhibitor (MLN-4924) (BRD9 [5]; [9]): rescued BRD9 levels | BRD9 loss (immunoblot) (BRD9 [5]; wild type MM.1S cells, 4 hour treatment, indicated doses): marked dose-dependent BRD9 loss | BRD9:CRB9-DDB1 AUC [7, 10]: 80620 | BRD9:CRB9-DDB1 Cmax [7, 10]: 26.2 nM | BRD9 degradation / cellular potency, in words (BRD9 [8]): superior | pIC50 (BRD4(1)): 5.77
Compound: COc1cc(-c2cn(C)c(=O)c3cc(C(=N)NC4CCS(=O)(=O)CC4)sc23)ccc1OCC(=O)NCCCCCCCCNc1cccc2c1CN(C1CCC(=O)NC1=O)C2=O (stereo not shown) [Compound I-17]
bromodomain interaction profile [2]: also BRD7 and members of the BET family | % Ctrl @ 1 μM (TRIM33 (PHD, Bromo.)): 100 % Ctrl | BRD4 degradation (immunoblot) (BRD4): Off target degradation of BRD4, observed at high concentrations | efficacy on viability [6]: comparable efficacy | half-maximal anti-proliferative concentration (MOLM-13 cell line): low nanomolar | maximal efficacy on cell proliferation (MOLM-13 cell line): significantly exceeded that of the more selective I-25 | BRD9:CRBN-DDB1 dimerization, comparison in words [7]: superior; also recorded: effectively induce biochemical association | formation of the BRD9:CRBN-DDB1 protein complex ([7]; relative to unmodified pomalidomide): significantly induce formation of the complex | formation of the BRD9:CRBN-DDB1 protein complex ([7]; relative to unmodified thalidomide): significantly induce formation of the complex
